“Also recorded” adds a separate entry of the source. Like-named read-outs stand apart in the source and are kept apart here.

We go through eight compounds from patent US10329304B2, “Compounds and methods for inhibition of hedgehog signaling and phosphodiesterase” (Vanderbilt University, priority 2014, dated 2019).

The subject of data set [1] is zebrafish embryos. The data set can be described thus: Zebrafish embryo phenotypic assay (ZF). The class given is in vivo. Conditions: for Hh-deficient mutant phenotype in embryos: 2 μM from 4 hpf where stated. The method in brief: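 Phenotype scored by gross morphology at 24, 48 and 72 hours post-fertilization. Compound added at 5 hpf, from 1 mM or 10 mM stocks in DMSO, to about 10 wild-type AB embryos in E3 water. In the original screen, 5 μM final was applied near 4 hpf at 28.5 °C.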

Data set [2] relates to MCF7. The data set can be described thus: Cell viability assay (CellTiter-Blue, 72 hr). It counts as cell-based. Conditions: human cancer cells. The procedure: (§1) Cancer cell lines were seeded in 96 well tissue culture plate at a low density (10,000 cells per well) and treated with varying concentrations of Eggmanone. After 72 hr incubation, CellTiter-Blue Cell Viability Assay (Promega, Madison, Wis.) was then performed according to manufacturer's protocol. Absorbance was then measured in a Modulus Microplate reader (Promega, Madison, Wis.) at 590 nm and compared to cells treated with DMSO.
Cancer cell lines were seeded in 96 well tissue culture plate at a low density and treated with varying concentrations of compounds identified in Table 7. After 72 hr incubation, CellTiter-Blue Cell Viability Assay (Promega, Madison, Wis.) was then performed according to manufacturer's protocol. Absorbance was then measured in a Modulus Microplate reader (Promega, Madison, Wis.) at 590 nm and compared to cells treated with DMSO.

Data set [3] deals with SmoM2-Light cells. Description: Cell viability of SmoM2-Light cells. It counts as cell-based. The procedure: as §1
The subject of data set [4] is Ptch1 transcription. The data set can be described thus: Sufu−/− mouse embryonic fibroblasts qRT-PCR. It counts as cell-based. Conditions: Mus musculus, Fibroblast; read-out: Sufu Null (Ptc) % Inh., 10 μM.
Data set [5] can be described thus: Mouse echocardiography after IP injection. Conditions: for Heart rate: 5 mg/kg to 20 mg/kg IP. It counts as in vivo. The protocol: As shown below (FIGS. 28 and 29), ionotropic effects are seen within 30 minutes of eggmanone administration to a mouse (20 mg/kg IP injection). […] Mechanistically compound EGM targets the hydrolase PDE4. In Human adult myocardium, PDE4 localizes strictly to the z-bands.

Setting [6] is: healthy wild type mice and mice with heart failure.

In the case of `C=C(C)Cn1c(SCC(=O)c2cccs2)nc2sc3c(c2c1=O)CCCC3` [EGM, Eggmanone], in data set [1], the “Hh-deficient mutant phenotype in embryos” value was “exhibited range of phenotypes found in Hh pathway mutants”. For the same compound, in data set [2], the “CELL KILLING EC50 (μM) Breast MCF7” value is “UnCh”. The “Viability of SmoM2 cells” value in data set [3] (listed as Egm) is “rapid (within 24-hrs) decline in viability”. In addition, in data set [4], the inhibition at 10 µM was 65.6%. Further, the Heart rate entry in data set [5] was “without increasing heart rate; also recorded: does not increase the heart rate”. Also, in data set [5] (setting [6]), the “End-diastolic left ventricular internal dimension (LVIDd)” value is “decreases end-diastolic left ventricular internal dimension (LVIDd)” and the “Fractional shortening (FS)” value is recorded as “increases fractional shortening (FS)”. Further, in data set [5] (mice), the Side effects result is “no significant side effects” and the “Time to return to baseline heart function” value is at most 24 h.
`C=C(C)Cn1c(SCC(=O)c2cccs2)nc2sc3c(c2c1=O)CCCC3` [Eggmanone, 3-(2-methylallyl)-2-((2-oxo-2-(thiophen-2-yl)ethyl)thio)-5,6,7,8-tetrahydrobenzo[4,5]thieno[2,3-d]pyrimidine-4(3H)-one]: the “Hh-deficient mutant phenotype in embryos” value is “caused a number of phenotypes resembling those of Hh-deficient mutant embryos; also recorded: exhibited range of phenotypes found in Hh pathway mutants” in data set [1] and “caused a number of phenotypes resembling those of Hh-deficient mutant embryos” in data set [1] (listed as eggmanone). The “Viability of SmoM2 cells” value in data set [3] is “efficiently and selectively killed SmoM2-Light cells”. In addition, the Heart rate result in data set [5] is “without increasing heart rate”. Moreover, the “Time to ionotropic effects” value in data set [5] (20 mg/kg IP injection) is at most 30 min. The “Fractional shortening (FS)” value in data set [5] (setting [6]) is “increases fractional shortening (FS) and ejection fraction (EF)”.
With `O=C(CSc1nc2sc3c(c2c(=O)n1C1CC1)CCCC3)c1cccs1` [JEH-3-039-2], the “ZF Phenotype EC100” value in data set [1] (wild-type embryonic zebrafish, dosed 5 hpf) was determined as 0.1 µM. Further, the inhibition at 10 µM in data set [4] worked out at 80.4%.
`C=CCn1c(SCC(=O)c2cccs2)nc2sc3c(c2c1=O)CCCC3` [JEH-3-039-3]: the “CELL KILLING EC50 (μM) Breast MCF7” value in data set [2] is listed as “UnCh”. Moreover, the inhibition at 10 µM in data set [4] was 38.1%.
For the compound `C=C(C)Cn1c(SCC(=O)c2ccccc2)nc2sc3c(c2c1=O)CCCC3` [JEH-3-045-1], the inhibition at 10 µM in data set [4] was found to be 47.6%.
As to `C=C(C)Cn1c(SCC(=O)c2ccncc2)nc2sc3c(c2c1=O)CCCC3` [JEH-3-048-1], the “CELL KILLING EC50 (μM) Breast MCF7” value in data set [2] is listed as “UnCh”.
As for `C=C(C)Cn1c(SCC(=O)c2ccccn2)nc2sc3c(c2c1=O)CCCC3` [JEH-3-063], the “CELL KILLING EC50 (μM) Breast MCF7” value in data set [2] was “UnCh”.
The same measure, in the same setting: under `C=C(C)Cn1c(SCC(=O)c2nccs2)nc2sc3c(c2c1=O)CCCC3` [JEH-3-069-1] stands “UnCh”.
